Measurements published in article PMC8746645, “Isolation of Anti-Diabetic Active Compounds from Benincasae Exocarpium and Development of Simultaneous Analysis by HPLC-PDA” (Molecules, 2021).
Like-named read-outs stand apart in the source and are kept apart here.

Key:
[1] = tested on: advanced glycation end-products (AGEs) formation in bovine serum albumin (BSA)-glucose system; type: biochemical
Experimental: The AGE formation inhibitory assay of BSA-glucose was conducted using a spectrophotometric method developed in a previous study. All test samples were dissolved in 10% DMSO at five different concentrations (1000–10,000 μg/mL for the extract and fractions and 100–10,000 μM for the compounds). The assay mixtures contained the following constituents: 135 µL of 50 mM phosphate buffer (pH 7.4) containing 0.02% sodium azide and BSA (10 mg/mL), 135 µL of 0.4 M D-fructose and D-glucose, and 30 µL of sample. The mixture was incubated at 60 °C for 2 days. After incubation, the fluorescence was measured at an excitation wavelength of 350 nm and emission wavelength of 450 nm in a 96-black well plate. AMG was used as a positive control. The inhibitory activity on AGE formation of BSA-glucose was calculated using the following formula: {(Ac − As)/Ac} × 100, where Ac is the fluorescence of the control and As is the fluorescence of the sample. Controls contained the same reaction mixture, except that phosphate buffer was added instead of the sample. The half-maximal inhibitory concentration (IC50) values of triplicate measurements of the samples and AMG were calculated and expressed as the mean ± SD.

[2] = tested on: advanced glycation end-products (AGEs) formation in BSA-methylglyoxal (MGO) system; assay: AGE formation inhibitory assay, BSA-MGO system; type: biochemical, bovine
Experimental: The AGE formation inhibitory assay of BSA-MGO was conducted using spectrophotometry according to a previously described method with modification. All samples were dissolved in 10% DMSO. The assay mixtures contained 50 µL of 50 mM phosphate buffer (pH 7.4) containing 0.02% sodium azide and BSA (10 mg/mL), 50 µL of 7 mM MGO, and 50 µL of sample. After incubation at 60 °C for 2 days, fluorescence was measured on excitation and emission wavelengths of 340 and 420 nm, respectively, in a 96-black well plate. AMG was used as a positive control. The inhibitory activity on AGE formation by BSA-MGO was calculated using the same equation applied in the BSA-glucose assay.

[3] = biological target: α-glucosidase from Saccharomyces cerevisiae (Saccharomyces cerevisiae, UniProt P53341); assay: α-glucosidase inhibitory activity assay (p-NPG substrate); type: biochemical; details: for IC50: compounds, pH 6.8, 37 °C, 405 nm, mean ± SD (n = 3)
Sequence of α-glucosidase from Saccharomyces cerevisiae (P53341 whole entry): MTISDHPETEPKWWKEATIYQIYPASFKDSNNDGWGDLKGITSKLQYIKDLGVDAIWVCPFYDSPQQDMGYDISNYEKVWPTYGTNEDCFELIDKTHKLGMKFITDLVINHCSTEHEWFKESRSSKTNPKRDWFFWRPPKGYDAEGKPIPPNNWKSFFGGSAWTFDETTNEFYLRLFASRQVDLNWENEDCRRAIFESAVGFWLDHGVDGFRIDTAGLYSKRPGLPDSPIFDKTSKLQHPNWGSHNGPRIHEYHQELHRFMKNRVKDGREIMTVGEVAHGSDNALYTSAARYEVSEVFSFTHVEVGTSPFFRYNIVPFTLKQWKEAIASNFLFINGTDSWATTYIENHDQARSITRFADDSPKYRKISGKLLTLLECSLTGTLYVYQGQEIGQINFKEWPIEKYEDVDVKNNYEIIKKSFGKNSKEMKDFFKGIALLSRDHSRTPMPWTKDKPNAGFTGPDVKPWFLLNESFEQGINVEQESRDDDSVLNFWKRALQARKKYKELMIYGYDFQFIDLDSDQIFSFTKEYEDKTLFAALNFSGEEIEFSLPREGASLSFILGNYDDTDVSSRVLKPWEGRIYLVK
Experimental: Among the anti-diabetes activity assays, the Infinite® F200 PRO spectrophotometer (TECAN, Männedorf, Zürich, Switzerland) was used for the AGE formation inhibitory activity assay in the BSA-glucose and BSA-MGO systems. In addition, the α-glucosidase inhibitory activity assay was performed using Biotek EPOCH2 (Biotek, Winooski, VT, USA).
α-Glucosidase inhibitory activity was measured spectrophotometrically according to the previously described method. All samples were dissolved in 10% DMSO. This assay consisted of a 50 μL sample solution, 50 μL of 50 mM potassium phosphate buffer (pH 6.8), and 50 μL of 0.5 U/mL α-glucosidase was preincubated for 10 min at 37 °C. After incubation, 50 μL of p-NPG was added to the mixed assay mixtures. […] The inhibitory activity was calculated using the equation applied in the BSA-glucose assay, but Ac and As are the absorbance values of the control and sample, respectively.

[4] = parameters: method as in PMID 29885110; details: cited from earlier work
[5] = compounds, 60 °C, 2 days, fluorescence ex 350/em 450 nm, mean ± SD (n = 3), read-out: IC50 BSA-Glucose
[6] = compounds, 60 °C, 2 days, fluorescence ex 340/em 420 nm, mean ± SD (n = 3)

Compound | IC50 [1, 5] | IC50 [2, 6] | α-glucosidase inhibitory activity (in words) [3] | inhibition of AGE formation in BSA-MGO system (in words) [2] | other results
O=c1cc(-c2ccc(O)cc2)oc2c([C@@H]3O[C@H](CO)[C@@H](O[C@@H]4O[C@H](CO)[C@@H](O)[C@H](O)[C@H]4O)[C@H](O)[C@H]3O)c(O)cc(O)c12 [Compound 11, vitexin-4″-O-glucoside] | 14.5 ± 0.39 µM | 11.6 ± 1.1 µM | – | – | IC50 [3]: 65.4 ± 4.22 µM
O=C(O)/C=C/c1ccc(O)c(O)c1 [Compound 9, caffeic acid] | 54.51 ± 0.3 µM | 43 ± 9.41 µM | no, or slight, inhibitory activity | – | –
O=c1cc(-c2ccc(O)cc2)oc2c([C@@H]3O[C@H](CO)[C@@H](O)[C@H](O)[C@H]3O)c(O)cc(O)c12 [Compound 6, vitexin] | 19.5 ± 1.47 µM | 14.9 ± 3.66 µM | – | – | –
C[C@@H]1O[C@@H](O[C@@H]2[C@@H](O)[C@H](O)[C@@H](CO)O[C@H]2c2c(O)cc(O)c3c(=O)cc(-c4ccc(O)cc4)oc23)[C@H](O)[C@H](O)[C@H]1O [Compound 10, vitexin-2″-O-rhamnoside] | – | – | – | – | IC50 [1]: 29.6 ± 1.02 µM; IC50 [2]: 12.5 ± 0.81 µM; IC50 [3]: 12.8 ± 1.18 µM
N=C(N)NN [Aminoguanidine, aminoguanidine] | – | – | – | – | toxicity during clinical evaluation [4]: toxic
Cl.N=C(N)NN [AMG, aminoguanidine hydrochloride, reference compound] | – | – | – | – | IC50 BSA-Glucose ([1]; extract and fractions, 60 °C, 2 days, fluorescence ex 350/em 450 nm, mean ± SD (n = 3)): 217.93 ± 1.54 µg/mL; IC50 BSA-MGO ([2]; extract and fractions, 60 °C, 2 days, fluorescence ex 340/em 420 nm, mean ± SD (n = 3)): 167.32 ± 8.40 µg/mL
COc1ccc(C=O)cc1O [Compound 3, isovanillin] | – | > 500 µM | no, or slight, inhibitory activity | no or slight inhibitory activity | inhibition of AGE formation in BSA-glucose system (in words) [1]: no activity
O=C(O)c1ccc(O)c(O)c1 [Compound 2, protocatechuic acid] | 79.8 ± 1.91 µM | 53.2 ± 23.2 µM | – | – | –
O=Cc1ccc(CO)o1 [Compound 4, 5-hydroxymethylfurfural] | – | 381 ± 14.7 µM | no, or slight, inhibitory activity | no or slight inhibitory activity | inhibition of AGE formation in BSA-glucose system (in words) [1]: no activity
O=c1cc(-c2ccc(O)cc2)oc2cc(O)c([C@@H]3O[C@H](CO)[C@@H](O)[C@H](O)[C@H]3O)c(O)c12 [Compound 5, isovitexin] | 20.2 ± 0.1 µM | 7.49 ± 0.24 µM | – | – | –
O=C(O)c1cc(O)c(O)c(O)c1 [Compound 8, gallic acid] | 192 ± 2.15 µM | > 500 µM | – | no or slight inhibitory activity | –
O=c1cc(-c2ccc(O)c(O)c2)oc2c([C@@H]3O[C@H](CO)[C@@H](O)[C@H](O)[C@H]3O)c(O)cc(O)c12 [Compound 7, orientin] | 9.61 ± 0.27 µM | 13.3 ± 0.65 µM | – | – | –
O=C(O)c1ccc(O)cc1 [Compound 1, p-hydroxybenzoic acid] | – | – | no, or slight, inhibitory activity | no or slight inhibitory activity | inhibition of AGE formation in BSA-glucose system (in words) [1]: no activity
